Literature values in patent US20130337054A1, “TREATMENT OF EXCESSIVE MENSTRUAL BLOOD LOSS BY INTRAVAGINAL ADMINISTRATION OF LOW DOSES OF ANTIFIBRINOLYTIC OR HEMOSTATIC AGENT” (ARSTAT Inc., priority 2011, published 2013).

Legend:
[1] = cited from earlier work
[2] = test system: menorrhagia; conditions: oral, cited from earlier work
[3] = test system: postoperative bleeding complications; conditions: mouthwash, compared to placebo; cited from earlier work
[4] = test system: menorrhagia (menstrual blood loss); conditions: oral; cited from earlier work
[5] = test system: postoperative blood loss; conditions: cited from earlier work

| Molecule | plasma concentration ([1]; after a mouth rinse) | saliva concentration, maximum level ([1]; after a mouth rinse) | time saliva concentration remained at a therapeutic level ([1]; after a mouth rinse) | drug in saliva samples ([1]; after an oral tablet) | mean drug plasma concentration ([1]; after an oral tablet) | risk of gastrointestinal adverse events ([2]; 6 g/day) | efficacy in relation to dose ([2]; EMEA 2000) | incidence of postoperative bleeding complications [3] | difference versus placebo in reduction of large stains, small and large clots and changes in serum ferritin levels [4] | plasma drug levels ([5]; in vivo) | postoperative blood loss ([5]; locally administered) |
| --- | --- | --- | --- | --- | --- | --- | --- | --- | --- | --- | --- |
| NC[C@H]1CC[C@H](C(=O)O)CC1 [tranexamic acid] | below 2 mcg/mL | above 200 mcg/mL | more than two | not detected | 7 µg/mL | increased | dose-dependent increase in efficacy | reduce the incidence | no statistically significant differences |  |  |
| aprotinin |  |  |  |  |  |  |  |  |  | without detectable plasma drug levels | Reduction |
